Test results reported in article PMC9767416, “Discovery of small molecule mechanistic target of rapamycin inhibitors as anti-aging and anti-cancer therapeutics” (Frontiers in Aging Neuroscience, 2022).
In brackets after ≈: the same amount, converted by molar mass. Read-outs that look alike come from different tables or passages of the source. Marks after values point to notes of the source that are not given here.

Legend:
[1] = Shake-flask partition coefficient logP and distribution coefficient logD (pH 7.4); type: physicochemical; conditions: for logD: n-octanol/sodium phosphate buffer pH 7.4; for logP: n-octanol/water
Procedure: Before the initiation of the intended experiments, all solvents were mutually saturated at 21°C. […] For saturation, large stock bottles containing n-octanol and 12% of water/buffer or water/buffer and 12% of n-octanol were shaken for 30 mins on a mechanical shaker and subsequently left to stand on the bench overnight until the phases separated. Approximately 0.50 mg of tested substance was added to the test vessels alongside with 1:1 volume ratio of saturated solvents (250 μL). The test vessels were shaken on the mechanical shaker (Multi Reax, Heidolph Instruments, Schwabach, Germany) for 30 min at the highest speed and then centrifuged for phase separation (16.873 × g for 5 min; Eppendorf 5418 Microcentrifuge, Prague, Czech Republic). Both organic and aqueous phases were sampled for LC-MS analysis. UHPLC-DAD-MS (UHPLC Infinity II 1290, detection by DAD and QqQ 6470; Agilent Technologies, CA, USA; separation on Arion C18 polar column 100 × 2.1 mm, 2.1 μm; Chromservis, Czech Republic) was used for determination of the exact concentration of tested substances. The total quantity of substance (in both phases) was used for logP/logD values calculation.

U373 cells = experiment: Time-lapse microscopy (Incucyte) of U373; type: cell-based, human; conditions: 100 μM, 72 h
Procedure: (§1) For auto-monitoring of cells, Incucyte SX1 Live-Cell Analysis System (Sartorius, Göttingen, Germany), located in an incubator maintained at 37°C under a 5% CO2 atmosphere and 95% humidity, was utilized. The images (1,408 × 1,040 pixels at 1.24 microns/pixel) were acquired using a 10× objective lens in phase contrast, red fluorescence (excitation: 585 ± 20 nm, emission: 635 [625, 705] nm, acquisition time: 100 ms) channels every 60 min during 72 h. The first image was acquired 30 min after adding compounds. The images were processed to measure cell confluence using Incucyte software (version 2022A). Annexin V – Dy647, Apronex (diluted 1:1,000) was used for apoptotic cell staining.

BJ, RPE-1 and U373 cells = experiment: Crystal violet and resazurin proliferation screen in proliferating cells; type: cell-based, human; conditions: RPE-1, U373, 0, 10, 50, 80, 100 μM, 24 h
Procedure: All cell lines used in the study were obtained from the American Type Culture Collection (ATCC, Manassas, VA, USA). Human telomerase-immortalized retinal pigment epithelial cells RPE-1, glioblastoma U-87 MG, glioblastoma U373MG, glioblastoma T98G, glioblastoma A-172, breast adenocarcinoma MDA-MB-231, prostate carcinoma DU-145, and non-small cell lung cancer NCI-H1299 cell lines were cultured in Dulbecco’s modified Eagle’s medium (DMEM, Thermo Fisher Scientific, Waltham, MA, USA) with high glucose (4.5 g/L). Primary human skin BJ fibroblasts were cultured in Dulbecco’s modified Eagle’s medium (DMEM, Thermo Fisher Scientific, Waltham, MA, USA) with low glucose (1 g/L). Both cell culture media were supplemented with 10% fetal bovine serum (FBS, Gibco/Thermo Fisher Scientific) and non-essential amino acids (NEAA), 100 units/mL of penicillin, and 100 μg/mL of streptomycin (Sigma-Aldrich). Cells were kept at 37°C under a 5% CO2 atmosphere and 95% humidity.
(§2) Twenty-four hours before treatment, cells were plated in 96-well plates at densities of 2,850 cells per well for senescent RPE-1 (IR-RPE-1), 3,350 cells per well for proliferating RPE-1 and senescent BJ (DIS-BJ), and 5,000 cells per well for U373, T98, A172, U87, TMZ-U87, and proliferating BJ cells.
(§3) For the crystal violet assay, the cells were washed twice with 150 μL PBS and stained with 30 μL 0.5% (w/v) crystal violet in 20% methanol for 15 mins. Next, the plates were washed five times with ddH2O and left to dry overnight. Crystal violet was solubilized with 75 μL 0.2% Triton X-100 (Sigma) in PBS for 15 mins. The absorbance was read at 595 nm using a microplate reader (Envision, PerkinElmer, Waltham, MA, USA). The absorbance of crystal violet in treated cells was expressed as a percentage of absorbance in untreated cells. Each condition was measured at least in triplicate.
(§4) For the resazurin assay, 200 μL of the culture medium of each well was exchanged for 100 μL of resazurin (stock solution 30 mg/mL; Sigma, St. Louis, MO, USA) diluted 10 times in the culture medium, and the cells were incubated at 37°C for 1–3 h. Reading of fluorescence was done using a microplate reader (PerkinElmer, Waltham, MA, USA). Absolute values of fluorescence were related to the values of untreated cells. Each condition was measured at least in triplicate.

RPE-1 cells = experiment: Time-lapse microscopy (Incucyte) of proliferating RPE-1; type: cell-based, human; conditions: higher concentrations 80–100 μM, 72 h
Procedure: as §1

[2] = Solubility by nephelometry (water, buffer pH 7.4); type: physicochemical; conditions: for solubility at 30 s: medium not told apart (water and buffer pH 7.4)
Procedure: Compounds’ solubility was measured by the NEPHELOstar microplate instrument (BMG Labtech, Offenburg, Germany). Stock solutions were prepared by dissolving the tested compounds in ultrapure water or sodium phosphate buffer (pH 7.4) to obtain a concentration of 160 and 1,000 μg/mL. Each stock solution was sonicated at full power by Hielscher UP100H needle ultrasonic processor (Teltow, Germany) before loading into NEPHELOstar instrument injector A. Ultrapure water or sodium phosphate buffer was loaded into injector B. Compound was diluted in 48 wells in 0–160 or 0–1,000 μg/mL range and subsequently shook for 30 s. Each well was scanned with 80% laser power in matrix 3 × 3, beam width 2 mm, and obtained data were evaluated in GraphPad Prism 7.03 (GraphPad Software, San Diego, CA, USA) using segmental linear regression.

[3] = Dissociation constants by spectrophotometric titration; type: physicochemical; conditions: 20°C; for pKa: ultrapure water
Procedure: The spectrophotometric titration was used for dissociation constants’ determination, utilizing spectrophotometer Agilent Cary-60 (Agilent Technologies, CA, USA), pH meter WTW InoLab_IDS Multi 9430 (WTW, Czech Republic), and pH electrode SenTix® Mic (WTW, Czech Republic). Data were analyzed by GraphPadPrism 8.0 software (GraphPad Software, CA, USA). The analyzed samples were prepared by adding 20 μL of compound stock solution (2 mg/mL) and 20 μL of 0.1 M hydrochloric acid into the cuvette with ultrapure water (total volume 3.5 mL). The samples were titrated by 0.1 M sodium hydroxide at 20°C while acquiring absorption spectra (190–500 nm) at different pH values. Absorbance at the chosen wavelength was plotted as a function of pH. The inflection point in the given plot was used for pKa value determination.

[4] = CNS MPO desirability score
Procedure: ACDLAbs PhysChem Suite 14.0 software (Advanced Chemistry Development, Inc., Toronto, ON, Canada) was used for the calculation of Mw, tPSA, and HBD values. The CNS MPO score calculation method was described by [Wager et al. (2016)].
Central nervous system multiparameter optimization desirability score was calculated as described by [Wager et al. (2016)], utilizing all collected experimental and calculated data. This scoring tool was set on ranges of desirable property space and linear transformational functions with values between 0 and 1 (defined as T0 for each property). Rating each parameter equally, the collective score ranges from 0 to 6, while a score higher than 4 is desirable ([Rankovic, 2015]).

[5] = system: IR-induced senescent RPE-1 cells; experiment: Crystal violet and resazurin assays in IR-induced senescent RPE-1; type: cell-based, human; conditions: γ-irradiated RPE-1; crystal violet readout only
Procedure: To obtain ionizing radiation (IR)-induced senescent cells, proliferating RPE-1 cells were exposed to a single dose of X-rays (20 Gy) using Pantak HF160 (Gulmay, Surrey, UK) X-ray instrument equipped with Pantak Seifert HF320 generator, MXR-161 X-ray tube (Comet AG, Flamatt, Switzerland), and an aluminum filter using current 1–10 mA. After irradiation, the cells were cultured for an additional 7 days until the development of the senescent phenotype ([Salovska et al., 2022]). To induce docetaxel-induced senescence (DIS), BJ cells were exposed to 5 nM docetaxel for 7 days, as described previously ([Sapega et al., 2018]). To prepare temozolomide (TMZ)-induced senescence, U87 cells were exposed to 100 μM TMZ for 14 days.
as §2, §3
as §4, with “triplicate. […]” for “triplicate.”

[6] = n-octanol/sodium phosphate buffer, pH 7.4, shake-flask, read-out: logD
[7] = aqueous buffer, sodium phosphate buffer pH 7.4, nephelometry, read-out: Sol. (buffer 7.4)
[8] = ultrapure water, nephelometry, read-out: Sol. (H2O)
[9] = from experimental and calculated data, method of Wager et al. (2016), scale 0-6
[10] = sodium phosphate buffer pH 7.4, nephelometry

logD [1, 6]	logP ([1]; shake-flask, read-out: logP)	solubility kinetic at 30 s [2, 7] [mg/mL]	logSpH 7.4 ([2]; buffer pH 7.4)	solubility at 30 s [2] [mg/mL]	solubility kinetic at 30 s [2, 8] [mg/mL]	logSH2O ([2]; water)	pKa ([3]; read-out: pKa1)	MPO (CNS MPO score) [4, 9]	melting point [°C]	Compound	effect on the readout of crystal violet and resazurin assays (BJ, RPE-1 and U373 cells)	also measured
1.52 ± 0.01	1.48 ± 0.03	> 1	>−2.65	> 1	0.789 (≈ 1780 µM)	−2.75				O=C(O[C@@H]1Cc2c(O)cc(O)cc2O[C@@H]1c1ccc(O)c(O)c1)c1cc(O)c(O)c(O)c1 [Compound 7, epicatechin gallate]	mild (although sometimes statistically significant) suppressive effect	effect on cell proliferation (cell confluence, time-lapse) (U373 cells): cytostatic effect; effect on cell proliferation (cell confluence, time-lapse) (RPE-1 cells): cytostatic effect
2.91 ± 0.01	2.86 ± 0.01	< 0.006	<−4.60		< 0.006	<−4.60	4.8 ± 0.06	5	104 to 106	CN(C)c1cccc(-c2cccc(C(N)=O)c2)c1 [Compound 6, 3’-(Dimethylamino)-[1,1’-biphenyl]-3-carboxamide]	mild (although sometimes statistically significant) suppressive effect	Sol. (buffer 7.4) [2, 10]: lower than 6 μg/mL; Sol. (H2O) ([2]; ultrapure water, nephelometry): lower than 6 μg/mL
		> 0.16			0.0333 (≈ 154 µM)	−3.81	6.18 ± 0.04	5.2	227 to 229	c1ccc2[nH]c(NC3CCNCC3)nc2c1 [Compound 1, N-(piperidine-4-yl)-1H-benzo[d]imidazol-2-amine]	mild (although sometimes statistically significant) suppressive effect	logD ([1]; shake-flask): 0.85 ± 0.03; logP ([1]; shake-flask): 1.86 ± 0.07

The remaining lines, values behind:

Compound	logD [1, 6]	logP ([1]; shake-flask, read-out: logP)	solubility kinetic at 30 s [2, 7] [mg/mL]	logSpH 7.4 ([2]; buffer pH 7.4)	solubility at 30 s [2] [mg/mL]	solubility kinetic at 30 s [2, 8] [mg/mL]	logSH2O ([2]; water)	pKa ([3]; read-out: pKa1)	MPO (CNS MPO score) [4, 9]	melting point [°C]	effect on the readout of crystal violet and resazurin assays (BJ, RPE-1 and U373 cells)	also measured
CO[C@H]1C[C@@H]2CC[C@@H](C)[C@@](O)(O2)C(=O)C(=O)N2CCCC[C@H]2C(=O)O[C@H]([C@H](C)C[C@@H]2CC[C@@H](O)[C@H](OC)C2)CC(=O)[C@H](C)/C=C(\C)[C@@H](O)[C@@H](OC)C(=O)[C@H](C)C[C@H](C)/C=C/C=C/C=C/1C [Rapamycin, rapamycin]	4.63 ± 0.04	3.97 ± 0.03	< 0.006	<−5.18		< 0.006	<−5.18	10.7 ± 0.21	0.7			logSpH 7.4 ([2]; buffer pH 7.4, listed as rapamycin): < −4.60; Sol. (buffer 7.4) [2, 10]: lower than 6 μg/mL; Sol. (H2O) ([2]; ultrapure water, nephelometry): lower than 6 μg/mL; logSH2O ([2]; water, listed as rapamycin): < −4.60
COc1ccc(CN2CCNC2=N)cc1OC [Compound 5]	-1.78 ± 0.08	-1.79 ± 0.04									no effect	MPO (CNS MPO score) ([4]; experimental pKa unknown: calculated with T0(pKa) equal to zero): 4.5^a; selectivity for senescent versus proliferating cells [5]: mild but selective effect; logSH2O ([2]; 30 s): >−3.36; logSpH 7.4 ([2]; 30 s, pH 7.4): >−3.36; solubility kinetic at 30 s ([2]; pH 7.4, aqueous buffer): > 0.16 mg/mL; solubility kinetic at 30 s ([2]; water): > 0.16 mg/mL
NC(=O)[C@@H]1CC[C@H](C(=O)O)N1 [Compound 4]	-2.82 ± 0.22	-2.89 ± 0.16	> 1	>−2.20	> 1	> 1	>−2.20	3.17 ± 0.09	4.9		mild (although sometimes statistically significant) suppressive effect	pKa ([3]; read-out: pKa2): 7.8 ± 0.11
Br.Br.c1ccc2[nH]c(NC3CCNCC3)nc2c1 [Compound 2, N-(piperidin-4-yl)-1H-benzo[d]imidazol-2-amine dihydrobromide]			0.299	−3.10	> 1	> 1	>−2.58		4.9	275 to 277	mild (although sometimes statistically significant) suppressive effect	logD ([1]; shake-flask): −0.89 ± 0.11; logP ([1]; shake-flask): −1.01 ± 0.01; pKa1 [3]: 6.08 ± 0.08
